Read-outs that look alike come from different tables or passages of the source.
Legend:
[1] = Variation of the body temperature (duration of action); assay type: in vivo, male mice (CD1 Charles Rivers)
Experimental: (§1) The test is carried out on male mice (CD1 Charles Rivers) weighing 25-30 g, which have fasted for 6 hours.
The temperature of the body is noted by means of a thermocouple inserted about 1.5 cm in the rectum and connected to an electric temperature recorder. […]
The duration of action of the products is determined, using the doses able to reduce the temperature by 1° to 1.5° C.

[2] = Hypothermic activity; assay type: in vivo, male mice (CD1 Charles Rivers); conditions: Mus musculus, read-out: Effective dose (-1° C.)
Experimental: as §1
The temperature of the body is noted by means of a thermocouple inserted about 1.5 cm in the rectum and connected to an electric temperature recorder.
The products are administered by oral or sub-cutaneous route and the temperatures are noted at the instant 0 and at 30 minutes, 1 hour, 2 hours and 2-and-a-half hours after treatment.
The degree of hypothermia is evaluated as the difference between the treated animals and the controls, and the dose necessary to reduce the body temperature by 1° C. is noted.

[3] = in vivo; conditions: mouse, po
Experimental: The test was carried out on male mice (CD1 Charles Rivers), of 22 to 24 g, without food for 16 hours. […] The mortality is noted during the 7 days following the treatment.

[4] = tested on: ileum isolated from guinea-pig; experiment: Test of ileum isolated from guinea-pig; conditions: Cavia porcellus, agonist activity, Tyrode solution, 37° C., read-out: pD2 (negative logarithm of the dose which produces 50% of the maximum effect) (converted)
Experimental: Pieces of ileum are removed from guinea-pigs killed by decapitation. The isolated ileum is placed in 10 cm^3 of Tyrode solution at 37° C. and aerated with a mixture of oxygen (95%) and carbon dioxide gas (5%). The contractions due to the products are registered by means of a detector connected to a polygraph. […].
The possible antagonist activity of the products is tested vis-a-vis acetylcholine.
The agonist activity is expressed in pD2 (negative logarithm of the dose which produces 50% of the maximum effect).
The antagonist activity is expressed in DE50 (dose reducing by 50% the maximum response induced by acetylcholine).

[5] = in vivo; parameters: species or system male mice (CD1 Charles Rivers); conditions: mouse, in vivo; oral route; male CD1 mice; method of Miller and Tainter; read-out: DE50 (dose which causes diarrhoea in 50% of the animals)
Experimental: The test is carried out on male mice (CD1 Charles Rivers) weighing 25 to 30 g, which have fasted for 6 hours. The product dissolved at 5% in methocel is administered by oral route by means of an oesophage probe.
Control animals receive only the excipient.
After treatment, the animals are placed separately in cages of which the base is covered with blotting paper, and they are put under observation for 30, 60, 120 and 180 minutes.
The sheets of absorbent paper are changed after each observation.
The consistency of the feces is evaluated according to the method of Randall and Baruth (Arch. Int. Pharmacodyn. 220, 94, 1976) according to the following scale of values.
1: feces slightly soft, with or without a damp halo,
2: feces slightly soft, with a well-defined circle of humidity,
3: feces soft with a large circle of humidity,
4: feces without consistency with a very large circle of humidity.
For each product, the dose is noted which causes diarrhoea in 50% of the animals according to the method of Miller and Tainter (Proc. Soc. Exp. Biol. Med., 57, 261, 1944).

SMILES: COC(=O)C1=CCCN(C)C1 [Arecoline HBr, reference compound]
- Variations of the body temperature ([1]; 3.5 mg/kg sc, 0 min): -0.1 °C
- Variations of the body temperature ([1]; 3.5 mg/kg sc, 30 min): -1.5 °C
- Variations of the body temperature ([1]; 3.5 mg/kg sc, 60 min): -0.1 °C
- Variations of the body temperature ([1]; 3.5 mg/kg sc, 120 min): +0.2 °C
- Variations of the body temperature ([1]; 3.5 mg/kg sc, 180 min): +0.2 °C
- Variations of the body temperature ([1]; 200 mg/kg os, 0 min): +0.1 °C
- Variations of the body temperature ([1]; 200 mg/kg os, 30 min): -1.1 °C
- Variations of the body temperature ([1]; 200 mg/kg os, 60 min): -1.0 °C
- Variations of the body temperature ([1]; 200 mg/kg os, 120 min): -0.2 °C
- Variations of the body temperature ([1]; 200 mg/kg os, 180 min): -0.1 °C

SMILES: CCOC(=O)N1CCC=C(C=NOC)C1 [Example 2, Methyl ether of 1-ethoxycarbonyl-1,2,5,6-tetrahydropyridin-3-carboxaldehydeoxime]
- ED (-1 C) ([2]; oral route (O.R.)): 3.9 mg/kg
- ED (-1 C) ([2]; sub-cutaneous route (SC.R)): 3.6 mg/kg
- LD50 at 168 h [3]: 175 mg/kg
- EC50 [4]: 33.9 µM
- Variations of the body temperature ([1]; 5. mg/kg os, 0 min): +0.2 °C
- Variations of the body temperature ([1]; 5. mg/kg os, 30 min): -1.2 °C
- Variations of the body temperature ([1]; 5. mg/kg os, 60 min): -1.1 °C
- Variations of the body temperature ([1]; 5. mg/kg os, 120 min): -0.1 °C
- Variations of the body temperature ([1]; 5. mg/kg sc, 0 min): +0.2 °C
- Variations of the body temperature ([1]; 5. mg/kg sc, 30 min): -1.5 °C
- Variations of the body temperature ([1]; 5. mg/kg sc, 60 min): -1.4 °C
- Variations of the body temperature ([1]; 5. mg/kg sc, 120 min): -0.1 °C
- ED50 [5]: 25 mg/kg

SMILES: C=CCOC(=O)N1CCC=C(C=NOC)C1 [Example 4, Methyl ether of 1-allyloxycarbonyl-1,2,5,6-tetrahydropyridin-3-carboxaldehyde oxime]
- ED (-1 C) ([2]; oral route (O.R.)): 1.6 mg/kg
- ED (-1 C) ([2]; sub-cutaneous route (SC.R)): 1.8 mg/kg
- LD50 at 168 h [3]: 175 mg/kg
- EC50 [4]: > 100 µM
- Variations of the body temperature ([1]; 2. mg/kg os, 0 min): -0.1 °C
- Variations of the body temperature ([1]; 2. mg/kg os, 30 min): -1.2 °C
- Variations of the body temperature ([1]; 2. mg/kg os, 60 min): -1.1 °C
- Variations of the body temperature ([1]; 2. mg/kg os, 120 min): -0.1 °C
- Variations of the body temperature ([1]; 2. mg/kg os, 180 min): -0.1 °C
- Variations of the body temperature ([1]; 2. mg/kg sc, 0 min): -0.1 °C
- Variations of the body temperature ([1]; 2. mg/kg sc, 30 min): -0.9 °C
- Variations of the body temperature ([1]; 2. mg/kg sc, 60 min): -1.0 °C
- Variations of the body temperature ([1]; 2. mg/kg sc, 120 min): -0.2 °C
- Variations of the body temperature ([1]; 2. mg/kg sc, 180 min): -0.1 °C
- ED50 [5]: 3 mg/kg

SMILES: CON=CC1=CCCN(C(=O)Oc2ccccc2)C1 [Example 6, Methyl ether of 1-phenyloxycarbonyl-1,2,5,6-tetrahydropyridin-3-carboxaldehyde oxime]
- ED (-1 C) ([2]; oral route (O.R.)): 4.6 mg/kg
- ED (-1 C) ([2]; sub-cutaneous route (SC.R)): 2.3 mg/kg
- LD50 at 168 h [3]: 500 mg/kg
- EC50 [4]: > 100 µM
- Variations of the body temperature ([1]; 3.5 mg/kg sc, 0 min): -0.1 °C
- Variations of the body temperature ([1]; 3.5 mg/kg sc, 30 min): -0.6 °C
- Variations of the body temperature ([1]; 3.5 mg/kg sc, 60 min): -1.4 °C
- Variations of the body temperature ([1]; 3.5 mg/kg sc, 120 min): -0.9 °C
- Variations of the body temperature ([1]; 3.5 mg/kg sc, 180 min): 0.1 °C
- Variations of the body temperature ([1]; 7.5 mg/kg os, 0 min): -0.1 °C
- Variations of the body temperature ([1]; 7.5 mg/kg os, 30 min): -1.1 °C
- Variations of the body temperature ([1]; 7.5 mg/kg os, 60 min): -1.6 °C
- Variations of the body temperature ([1]; 7.5 mg/kg os, 120 min): -0.6 °C
- ED50 [5]: 100 mg/kg

SMILES: CON=CC1=CCCN(C(=O)Oc2ccc(Cl)cc2)C1 [Example 12, Methyl ether of 1-parachlorophenyloxy-carbonyl-1,2,5,6-tetrahydropyridin-3-carboxaldehyde oxime]
- ED (-1 C) ([2]; oral route (O.R.)): 2.2 mg/kg
- ED (-1 C) ([2]; sub-cutaneous route (SC.R)): 2.9 mg/kg
- LD50 at 168 h [3]: > 1000 mg/kg
- EC50 [4]: > 100 µM
- Variations of the body temperature ([1]; 3.12 mg/kg os, 0 min): +0.1 °C
- Variations of the body temperature ([1]; 3.12 mg/kg os, 30 min): -0.9 °C
- Variations of the body temperature ([1]; 3.12 mg/kg os, 60 min): -1.4 °C
- Variations of the body temperature ([1]; 3.12 mg/kg os, 120 min): -0.3 °C
- Variations of the body temperature ([1]; 3.12 mg/kg sc, 0 min): -0.1 °C
- Variations of the body temperature ([1]; 3.12 mg/kg sc, 30 min): -0.1 °C
- Variations of the body temperature ([1]; 3.12 mg/kg sc, 60 min): -1.1 °C
- Variations of the body temperature ([1]; 3.12 mg/kg sc, 120 min): -1.2 °C
- Variations of the body temperature ([1]; 3.12 mg/kg sc, 180 min): -0.5 °C
- ED50 [5]: > 50 mg/kg

SMILES: CON=CC1=CCCN(C(=O)Oc2ccc(C(C)C)cc2)C1 [Example 13, Methyl ether of 1-p-isopropylphenyloxycarbonyl-1,2,5,6-tetrahydropyridin-3-carboxaldehyde oxime]
- ED (-1 C) ([2]; oral route (O.R.)): 3.4 mg/kg
- ED (-1 C) ([2]; sub-cutaneous route (SC.R)): 8.8 mg/kg
- LD50 at 168 h [3]: > 1000 mg/kg
- EC50 [4]: > 100 µM
- Variations of the body temperature ([1]; 6.25 mg/kg os, 0 min): +0.2 °C
- Variations of the body temperature ([1]; 6.25 mg/kg os, 30 min): -0.4 °C
- Variations of the body temperature ([1]; 6.25 mg/kg os, 60 min): -1.6 °C
- Variations of the body temperature ([1]; 6.25 mg/kg os, 120 min): -0.4 °C
- Variations of the body temperature ([1]; 6.25 mg/kg os, 180 min): -0.1 °C
- Variations of the body temperature ([1]; 12.5 mg/kg sc, 0 min): +0.2 °C
- Variations of the body temperature ([1]; 12.5 mg/kg sc, 60 min): -0.7 °C
- Variations of the body temperature ([1]; 12.5 mg/kg sc, 120 min): -1.4 °C
- Variations of the body temperature ([1]; 12.5 mg/kg sc, 180 min): -1.1 °C
- ED50 [5]: > 50 mg/kg

SMILES: CON=CC1=CCCN(C(=O)Oc2ccc(OC)c(OC)c2)C1 [Example 14]
- ED (-1 C) ([2]; oral route (O.R.)): 0.7 mg/kg
- ED (-1 C) ([2]; sub-cutaneous route (SC.R)): 0.7 mg/kg
- LD50 at 168 h [3]: 175 mg/kg
- EC50 [4]: > 100 µM
- Variations of the body temperature ([1]; 1. mg/kg os, 0 min): +0.1 °C
- Variations of the body temperature ([1]; 1. mg/kg os, 30 min): -1.1 °C
- Variations of the body temperature ([1]; 1. mg/kg os, 60 min): -1.4 °C
- Variations of the body temperature ([1]; 1. mg/kg os, 120 min): -0.2 °C
- Variations of the body temperature ([1]; 1. mg/kg os, 180 min): +0.1 °C
- Variations of the body temperature ([1]; 1. mg/kg sc, 0 min): +0.2 °C
- Variations of the body temperature ([1]; 1. mg/kg sc, 30 min): -0.7 °C
- Variations of the body temperature ([1]; 1. mg/kg sc, 60 min): -1.3 °C
- Variations of the body temperature ([1]; 1. mg/kg sc, 120 min): -0.5 °C
- ED50 [5]: > 50 mg/kg

SMILES: CON=CC1=CCCN(C(=O)Oc2ccc(Br)cc2)C1 [Example 19, 1-(4-bromophenyloxycarbonyl)-1,2,5,6-tetrahydropyridine-3-carboxaldehyde-O-methyloxime]
- ED (-1 C) ([2]; oral route (O.R.)): 1.7 mg/kg
- ED (-1 C) ([2]; sub-cutaneous route (SC.R)): 1.3 mg/kg
- LD50 at 168 h [3]: > 1000 mg/kg
- EC50 [4]: > 100 µM
- ED50 [5]: > 50 mg/kg

SMILES: CON=CC1=CCCN(C(=O)Oc2ccc(F)cc2)C1 [Example 20, 1(4-fluorophenyloxycarbonyl)-1,2,5,6-tetrahydropyridine-3-carboxaldehyde-O-methyloxime]
- ED (-1 C) ([2]; oral route (O.R.)): 3.2 mg/kg
- ED (-1 C) ([2]; sub-cutaneous route (SC.R)): 1.5 mg/kg
- LD50 at 168 h [3]: 500 mg/kg
- EC50 [4]: > 100 µM
- ED50 [5]: > 50 mg/kg

SMILES: CON=CC1=CCCN(C(=O)Oc2ccc(C)cc2)C1 [Example 21, 1-(4-methylphenyloxycarbonyl)-1,2,5,6-tetrahydropyridine-3-carboxaldehyde-O-methyloxime]
- ED (-1 C) ([2]; oral route (O.R.)): 1.5 mg/kg
- ED (-1 C) ([2]; sub-cutaneous route (SC.R)): 1.2 mg/kg
- LD50 at 168 h [3]: 250 mg/kg
- EC50 [4]: > 100 µM
- ED50 [5]: > 50 mg/kg

SMILES: CON=CC1=CCCN(C(=O)Oc2ccc(C(C)(C)CC(C)(C)C)cc2)C1 [Example 22, 1-[4-(1,1,3,3-tetramethylbutyl)phenyloxycarbonyl]-1,2,5,6-tetrahydropyridine-3-carboxaldehyde-O-methyloxime]
- ED (-1 C) ([2]; oral route (O.R.)): 7 mg/kg
- ED (-1 C) ([2]; sub-cutaneous route (SC.R)): 15 mg/kg
- LD50 at 168 h [3]: 500 mg/kg
- EC50 [4]: 100 µM
- ED50 [5]: > 50 mg/kg

Reference: patent US5231107A, “Derivatives of the oxime of 1,2,5,6-tetrahydropyridine 3-carboxaldehyde, the process for their preparation, their use as medicaments and the compositions containing them” (priority 1987, dated 1993)
